Reference: patent publication US10174013B2, “Benzimidazole derivatives as kinase inhibitors” (SELVITA S.A., priority 2012, dated 2019)
Where a name gives a salt, the structure may show the parent alone. Read-outs that look alike come from different tables or passages of the source.

Columns and labels:
Pim-3 = Pim-3 (Homo sapiens (Human), UniProt Q86V86); assay: ADP-Glo Kinase Assay, Pim-3; format: biochemical; conditions: 1 μM compound; for inhibition at 1 µM: read-out: Pim-3 % INH (1 μM)
Description: (§1) Compounds of the present invention were tested for their inhibitory activity against Pim-1, Pim-2, Pim-3, Flt3 wt, Flt3 ITD, CDK2/E and DYRK1. The testing of the compounds was carried out using the ADP-Glo™ Kinase Assay from Promega Corporation (Madison, Wis., USA).
(§2) The ADP-Glo™ Kinase Assay is a luminescent ADP detection assay to measure kinase activity by quantifying the amount of ADP produced during a kinase reaction. The kinase assay is performed in kinase assay buffer (5 mM MOPS, pH 7.5, 5 mM MgCl2, 0.4 mM EDTA, 1.5 mM DTT). Test samples initially dissolved in DMSO at 10 mM were diluted with the assay buffer to 1000 nM. A 30 μL volume/well of a mixture of substrates containing ATP (final ATP concentration in each kinase assay was equal to its apparent ATP Km).
(§3) The assay was performed in two steps: first, after the kinase reaction, an equal volume of ADP-Glo™ Reagent was added to terminate the kinase reaction and deplete the remaining ATP. Second, the Kinase Detection Reagent was added to simultaneously convert ADP to ATP and allowed the newly synthesized ATP to be measured using a luciferase/luciferin reaction. The luminescent signal generated was proportional to the ADP concentration produced and was correlated with kinase activity. A microplate spectrophotometer (Synergy 2 multi-mode microplate reader [BioTek]) was used for detecting the luminescence. The data was normalized and the percent of inhibition was obtained according to the following equation: […]

MV4-11 cells = assay: Growth inhibition, MTS assay, MV4-11; format: cell-based, Human; conditions: MTS cell viability, read-out: MV4-11 ED50
Description: (§4) The following cell lines, were obtained and used in tests as outlined below: • Human myelomonocytic, biphenotypic leukemia MV4-11 cells (harboring a Flt3-ITD mutation); • Human Acute Myeloid Leukemia MOLM16 cells; • Human Acute Myeloid Leukemia MOLM13 cells (harboring a Flt3-ITD mutation); • Human Myeloid Leukemia KG-1 cells; • Human erythroleukemia HEL92 cells; • Human mantle cell lymphoma Jeko-1 cells; • Human hepatocellular carcinoma HepG2 cells; and • Human colon adenocarcinoma SW-480 cells.
(§5) The assays were carried out according to the following protocol, which is described as an example for the MV4-11 cells:
(§6) Ten thousand MV4-11 cells were inoculated into each well of a 96-well microplate (manufactured by Corning Corp.) using Iscove's MDM medium (culture medium) containing 10% fetal calf serum (FCS). The same day, a dimethyl sulfoxide (DMSO) solution of each test compound prepared in a concentration of 10 mmol/L was further diluted with DMSO to the desired concentrations (0.1, 0.5, 1, 2.5, 5 and 10 micromol/L), and the diluted solution was added to each well. The individual wells were further cultured in 5% carbon dioxide at 37° C. for 72 hours. […] Briefly, 10 μl MTS (3-(4,5-Dimethyl-2-thiazolyl)-5-(carboxymethoxyphenyl)-2-(4-sulfophenyl)-2H-tetrazolium was added to each well, and culturing was performed in 5% carbon dioxide at 37° C. for 2 hours. After this incubation and using a microplate spectrophotometer (Synergy 2 multi-mode microplate reader (BioTek)), the absorbance of each well was measured at 490 nm. The value for cells not incubated with a test compound was designated as 100%. By comparing these values with the absorbance difference obtained at the well in which each test compound was added, the cell viability (% viability) after treatment with the test compound was calculated.

Pim-1 = Pim-1 (Homo sapiens (Human), UniProt P11309); assay: ADP-Glo Kinase Assay, Pim-1; format: biochemical; conditions: 1 μM compound; for inhibition at 1 µM: read-out: Pim-1 % INH (1 μM)
Description: as §1, §2, §3

FLT3wt = FLT3wt (Homo sapiens (Human), UniProt P36888); assay: ADP-Glo Kinase Assay, Flt3 wt; format: biochemical; conditions: 1 μM compound; for inhibition at 1 µM: read-out: Flt3wt % INH (1 μM)
Description: as §1, §2, §3

DYRK1 = DYRK1 (Homo sapiens (Human), UniProt Q13627); assay: ADP-Glo Kinase Assay, DYRK1; format: biochemical; conditions: 1 μM compound; for inhibition at 1 µM: read-out: DYRK1A % INH (1 μM)
Description: as §1, §2, §3

Pim-2 = Pim-2 (Homo sapiens (Human), UniProt Q9P1W9); assay: ADP-Glo Kinase Assay, Pim-2; format: biochemical; conditions: 1 μM compound; for inhibition at 1 µM: read-out: Pim-2 % INH (1 μM)
Description: as §1, §2, §3

HepG2 cells = assay: Growth inhibition, MTS assay, HepG2; format: cell-based, Human; conditions: MTS cell viability, read-out: HepG2 ED50
Description: as §4, §5, §6

CDK2/E = CDK2/E (Homo sapiens (Human), UniProt P24941); assay: ADP-Glo Kinase Assay, CDK2/E; format: biochemical; conditions: 1 μM compound; for inhibition at 1 µM: read-out: CDK2/E % INH (1 μM)
Description: as §1, §2, §3

HEL92 cells = assay: Growth inhibition, MTS assay, HEL92; format: cell-based, Human; conditions: MTS cell viability, read-out: HEL92 ED50
Description: as §4, §5, §6

Chain of FLT3wt (P36888 27-993): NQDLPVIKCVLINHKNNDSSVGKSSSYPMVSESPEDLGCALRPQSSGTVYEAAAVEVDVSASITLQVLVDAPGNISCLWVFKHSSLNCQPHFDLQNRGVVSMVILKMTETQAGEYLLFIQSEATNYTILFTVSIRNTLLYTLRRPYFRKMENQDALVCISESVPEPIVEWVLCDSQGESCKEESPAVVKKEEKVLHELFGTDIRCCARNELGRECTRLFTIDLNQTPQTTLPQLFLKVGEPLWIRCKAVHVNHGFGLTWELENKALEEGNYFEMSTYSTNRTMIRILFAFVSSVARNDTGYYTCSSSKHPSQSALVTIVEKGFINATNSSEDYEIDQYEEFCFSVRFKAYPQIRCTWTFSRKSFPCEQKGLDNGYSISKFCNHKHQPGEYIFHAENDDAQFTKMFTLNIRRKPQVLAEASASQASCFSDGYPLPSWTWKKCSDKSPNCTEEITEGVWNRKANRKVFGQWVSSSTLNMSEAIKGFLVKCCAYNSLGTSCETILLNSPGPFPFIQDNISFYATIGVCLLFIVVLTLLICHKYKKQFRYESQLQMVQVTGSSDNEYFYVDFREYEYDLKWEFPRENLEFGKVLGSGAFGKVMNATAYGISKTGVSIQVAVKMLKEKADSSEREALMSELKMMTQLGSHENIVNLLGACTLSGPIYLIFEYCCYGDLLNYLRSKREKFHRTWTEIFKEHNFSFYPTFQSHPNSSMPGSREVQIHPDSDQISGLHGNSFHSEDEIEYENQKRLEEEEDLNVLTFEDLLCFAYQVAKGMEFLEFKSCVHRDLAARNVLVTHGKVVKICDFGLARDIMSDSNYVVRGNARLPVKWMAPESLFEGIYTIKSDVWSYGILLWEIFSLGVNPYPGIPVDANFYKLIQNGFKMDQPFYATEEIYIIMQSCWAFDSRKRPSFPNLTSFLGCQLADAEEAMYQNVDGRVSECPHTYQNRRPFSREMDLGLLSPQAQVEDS
Chain of Pim-2 (Q9P1W9 whole entry): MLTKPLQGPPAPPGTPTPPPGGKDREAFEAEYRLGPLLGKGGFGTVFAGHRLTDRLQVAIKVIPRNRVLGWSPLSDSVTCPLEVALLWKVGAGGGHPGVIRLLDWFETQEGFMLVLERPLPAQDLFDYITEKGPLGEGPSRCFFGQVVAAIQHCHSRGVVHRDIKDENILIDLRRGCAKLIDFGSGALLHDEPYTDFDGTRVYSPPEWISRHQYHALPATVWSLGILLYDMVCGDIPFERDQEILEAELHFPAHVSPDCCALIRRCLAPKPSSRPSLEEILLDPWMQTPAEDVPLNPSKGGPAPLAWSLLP
Chain of Pim-1 (P11309 whole entry): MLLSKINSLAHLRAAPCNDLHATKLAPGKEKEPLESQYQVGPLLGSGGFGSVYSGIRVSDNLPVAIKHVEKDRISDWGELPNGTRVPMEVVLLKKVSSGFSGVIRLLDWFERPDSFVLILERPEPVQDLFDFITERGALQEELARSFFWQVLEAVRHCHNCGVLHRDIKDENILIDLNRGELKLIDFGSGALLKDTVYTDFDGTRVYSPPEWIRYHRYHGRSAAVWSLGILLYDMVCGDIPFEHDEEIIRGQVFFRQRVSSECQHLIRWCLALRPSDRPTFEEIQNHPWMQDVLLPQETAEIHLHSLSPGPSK

Compound | Pim-3 % INH (1 μM) (Pim-3) | IC50 (MV4-11 cells; 72 hours) | Pim-1 % INH (1 μM) (Pim-1) | Flt3wt % INH (1 μM) (FLT3wt) | DYRK1A % INH (1 μM) (DYRK1) | Pim-2 % INH (1 μM) (Pim-2) | IC50 (HepG2 cells; 72 hours) | CDK2/E % INH (1 μM) (CDK2/E) | inhibition at 1 µM (Pim-3) | inhibition at 1 µM (Pim-1) | inhibition at 1 µM (FLT3wt) | inhibition at 1 µM (DYRK1) | inhibition at 1 µM (Pim-2) | inhibition at 1 µM (CDK2/E) | IC50 (MV4-11 cells; Homo sapiens, MV4-11, 72 h) | IC50 (HepG2 cells; Homo sapiens, HepG2, 72 h) | IC50 (HEL92 cells; 72 hours) | IC50 (HEL92 cells; Homo sapiens, 72 h)
CCn1c(N2CC[C@@H](N)C2)nc2c([N+](=O)[O-])c(Cl)c(Cl)cc21 [Example 1CO] | 69% | 4300 nM | >95% | 12% | 30% | 25% | 3900 nM | 27% |  |  |  |  |  |  |  |  |  | 
CCn1c(NCC(O)CN)nc2c([N+](=O)[O-])c(Br)c(Br)cc21 (stereo not shown) [Example 1G] |  |  |  |  |  |  |  |  | 57% | 76% | 6% | 12% | 34% | < 5% |  |  |  | 
CC(C)Cn1c(N2CCC[C@@H](N)C2)nc2c([N+](=O)[O-])c(Br)c(Br)cc21.Cl [Example 1AU] | 68% | 2400 nM | >95% | 7% |  | 52% | 1900 nM | <5% |  |  |  |  |  |  |  |  | 5800 nM | 
COCCn1c(N2CC[C@@H](N)C2)nc2c([N+](=O)[O-])c(Br)c(Br)cc21 [Example 1CS] | 56% | 4800 nM | >95% | 10% | 37% | 23% | 4700 nM | 9% |  |  |  |  |  |  |  |  |  | 
CCn1c(Nc2ccccc2N)nc2c([N+](=O)[O-])c(Br)c(Br)cc21 [Example 22N, 1-N-(5,6-dibromo-1-ethyl-4-nitro-1H-1,3-benzodiazol-2-yl)benzene-1,2-diamine] |  |  |  |  |  |  |  |  | 44% | 82% | < 5% | 21% | 23% | < 5% | 2600 nM | 4200 nM |  | 
CC(C)n1c(N2CCNC[C@H]2C)nc2c([N+](=O)[O-])c(Br)c(Br)cc21 [Example 1AO] | 59% | 600 nM | 95% | 26% | 15% |  | 1700 nM |  |  |  |  |  |  |  |  |  | 3800 nM | 
CCn1c(N2CCC[C@H](N)C2)nc2c([N+](=O)[O-])c(Cl)c(Cl)cc21 [Example 1CT] | 64% | 2700 nM | >95% | 7% | 22% | 28% | 6000 nM | 6% |  |  |  |  |  |  |  |  |  | 
N[C@@H]1CCN(c2nc3c([N+](=O)[O-])c(Br)c(Br)cc3n2CC2CC2)C1 [Example 1BG] | >95% | 1600 nM | >95% | 23% | >95% | 82% | 4000 nM | <5% |  |  |  |  |  |  |  |  |  | 
CC(C)n1c(N2CCN[C@@H](C)C2)nc2c([N+](=O)[O-])c(Br)c(Br)cc21 [Example 22Z, 5,6-dibromo-2-[(3S)-3-methylpiperazin-1-yl]-4-nitro-1-(propan-2-yl)-1H-1,3-benzodiazole] |  |  |  |  |  |  |  |  | 85% | > 95% | 73% | 63% | 37% |  | 700 nM | 1600 nM |  | 2400 nM
Cl.NC1CCCN(c2nc3c([N+](=O)[O-])c(Br)c(Br)cc3n2CC2CC2)C1 (stereo not shown) [Example 1AV] | 91% | 1400 nM | >95% | 37% | 46% | 54% | 4500 nM | 12% |  |  |  |  |  |  |  |  |  | 
CCn1c(N2CCNCC2)nc2c(C(F)(F)F)c(Br)c(Br)cc21 [Example 9A, 5,6-dibromo-1-ethyl-2-(piperazin-1-yl)-4-(trifluoromethyl)-1H-1,3-benzodiazolehydrochloride] |  |  |  |  |  |  |  |  | 66% | > 95% | 76% | 77% | 15% | < 5% | 300 nM | 1500 nM |  | 
CC(C)n1c(N2CCCC(CO)C2)nc2c([N+](=O)[O-])c(Br)c(Br)cc21 (stereo not shown) [Example 22H, {1-[5,6-dibromo-4-nitro-1-(propan-2-yl)-1H-1,3-benzodiazol-2-yl]piperidin-3-yl}methanol] |  |  |  |  |  |  |  |  | 71% | > 95% | < 5% |  |  | 16% |  |  |  | 

Further lines, with some results ahead:

Pim-3 % INH (1 μM) (Pim-3) | IC50 (MV4-11 cells; 72 hours) | Pim-1 % INH (1 μM) (Pim-1) | Flt3wt % INH (1 μM) (FLT3wt) | DYRK1A % INH (1 μM) (DYRK1) | Pim-2 % INH (1 μM) (Pim-2) | IC50 (HepG2 cells; 72 hours) | CDK2/E % INH (1 μM) (CDK2/E) | inhibition at 1 µM (Pim-3) | inhibition at 1 µM (Pim-1) | inhibition at 1 µM (FLT3wt) | inhibition at 1 µM (DYRK1) | inhibition at 1 µM (Pim-2) | inhibition at 1 µM (CDK2/E) | IC50 (MV4-11 cells; Homo sapiens, MV4-11, 72 h) | IC50 (HepG2 cells; Homo sapiens, HepG2, 72 h) | Compound | IC50 (HEL92 cells; 72 hours) | IC50 (HEL92 cells; Homo sapiens, 72 h)
 |  |  |  |  |  |  |  | 77% | > 95% | < 5% | 21% | 29% | < 5% | 1900 nM | 5100 nM | CC(C)n1c(NCC2CNCCO2)nc2c(C#N)c(Br)c(Br)cc21 (stereo not shown) [Example 1BN] |  | 
 |  |  |  |  |  |  |  | 85% | > 95% | 23% | 28% | 40% | < 5% | 4100 nM |  | CC(C)n1c(N2CCOCC2)nc2c([N+](=O)[O-])c(Br)c(Br)cc21 [Example 22K, 5,6-dibromo-2-(morpholin-4-yl)-4-nitro-1-(propan-2-yl)-1H-1,3-benzodiazole] |  | 
 | 600 nM |  |  | 54% |  |  | <5% | > 95% | > 95% | 31% |  | 82% |  |  | 4800 nM | CC(C)n1c(N2CCC[C@H](N)C2)nc2c(C#N)c(Br)c(Br)cc21 [Example 1BJ] |  | 
 |  |  |  |  |  |  |  | 61% | > 95% | 7% | 16% | 30% | < 5% | 4100 nM | 7200 nM | COC(CN)CNc1nc2c(C#N)c(Br)c(Br)cc2n1C(C)C (stereo not shown) [Example 22AC, 2-[(3-amino-2-methoxypropyl)amino]-5,6-dibromo-1-(propan-2-yl)-1H-1,3-benzodiazole-4-carbonitrile] |  | 
76% | 2800 nM | >95% | 12% | 37% | 53% | 3200 nM | <5% |  |  |  |  |  |  |  |  | CC(C)n1c(N[C@H]2CNC[C@@H]2O)nc2c([N+](=O)[O-])c(Br)c(Br)cc21.Cl [Example 1CE] |  | 
 |  |  |  |  |  |  |  | 92% | 89% | < 5% | 40% |  | < 5% |  |  | CC(C)n1c(NCC(O)CN)nc2c([N+](=O)[O-])c(Br)c(Br)cc21 (stereo not shown) [Example 1W] |  | 
